Experimental findings from patent US10730825B2, “Methods for the treatment of diabetic retinopathy and other ophthalmic diseases” (Acucela Inc., priority 2012, dated 2020) are described below.

Experiment [1] addresses T1, visual cycle isomerase (Mus musculus, UniProt Q91ZQ5).
T1 sequence (Q91ZQ5 1-533): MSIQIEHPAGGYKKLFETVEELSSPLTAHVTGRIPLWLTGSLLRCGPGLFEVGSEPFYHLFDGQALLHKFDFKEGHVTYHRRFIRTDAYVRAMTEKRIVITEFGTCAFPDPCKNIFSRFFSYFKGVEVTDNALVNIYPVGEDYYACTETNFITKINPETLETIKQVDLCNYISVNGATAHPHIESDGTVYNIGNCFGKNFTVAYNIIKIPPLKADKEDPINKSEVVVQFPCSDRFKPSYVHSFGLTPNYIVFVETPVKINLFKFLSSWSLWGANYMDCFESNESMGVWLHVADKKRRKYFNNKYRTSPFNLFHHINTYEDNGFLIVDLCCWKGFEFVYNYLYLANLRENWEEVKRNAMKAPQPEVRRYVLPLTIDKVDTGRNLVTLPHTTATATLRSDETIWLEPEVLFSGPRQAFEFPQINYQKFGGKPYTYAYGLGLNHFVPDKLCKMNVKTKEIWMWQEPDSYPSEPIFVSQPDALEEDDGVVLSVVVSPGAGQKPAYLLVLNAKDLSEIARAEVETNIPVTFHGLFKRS
The experiment can be described thus: in vivo isomerase assay single dose, mice.

A further experiment relates to VEGF. Briefly: VEGF up-regulation caused by hypoxic conditions. It is filed as in vivo. The note with it: for VEGF mRNA levels: compared to vehicle control. As for the experimental part:
FIG. 8 depicts a protocol used to test if ACU-4935 reduced VEGF up-regulation caused by hypoxic conditions. Briefly, animals were adapted for dark for 16 hours, then dosed with ACU-4935. Animals were photobleached for 10 minutes with 50000 Lux 2 hours after being dosed, followed by a 2 hour recovery in the dark. Hypoxia was induced with 6% O2 for 6 hours. A portion of the animals were euthanized and samples were collected at time 0. Another portion of the animals were returned to the dark for 2 more hours prior to being euthanized and sample collection.
Samples were tested for VEGF protein (FIG. 9) and mRNA expression (FIG. 10).

For experiment [2], the target named is T2, visual cycle isomerase (Homo sapiens, UniProt Q16518).
T2 sequence (Q16518 1-533): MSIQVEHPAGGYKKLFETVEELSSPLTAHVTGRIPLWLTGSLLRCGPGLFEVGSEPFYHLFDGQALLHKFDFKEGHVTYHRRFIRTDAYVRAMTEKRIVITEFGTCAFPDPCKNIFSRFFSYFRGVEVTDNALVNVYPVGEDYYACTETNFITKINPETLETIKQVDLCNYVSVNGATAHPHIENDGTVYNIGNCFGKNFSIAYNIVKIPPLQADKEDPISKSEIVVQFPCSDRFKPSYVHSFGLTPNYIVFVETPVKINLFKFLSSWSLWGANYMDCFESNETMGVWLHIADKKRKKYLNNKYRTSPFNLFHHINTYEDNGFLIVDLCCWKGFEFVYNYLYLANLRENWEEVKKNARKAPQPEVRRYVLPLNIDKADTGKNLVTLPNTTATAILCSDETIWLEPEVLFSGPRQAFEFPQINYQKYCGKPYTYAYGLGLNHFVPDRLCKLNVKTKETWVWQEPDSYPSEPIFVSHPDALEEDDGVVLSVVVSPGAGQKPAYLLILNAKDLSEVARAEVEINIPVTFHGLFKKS
Briefly: in vitro isomerase activity. The class given is biochemical.

Experiment [3] relates to retinal neovascularization. The experiment can be described thus: Retinal neovascularization in mouse model of oxygen-induced retinopathy (OIR). As to conditions: OIR mice; for Retinal neovascular area reduced: 4 days.
Method: Pups were euthanized on P17, when neovascularization was maximal and eyes were removed for analysis.
Areas of retinal neovascularization were visualized with isoelectin staining of flatmount preparations and quantified with the lasso tool in Adobe Photoshop; total area of neovascularization indicated the sum of individual areas across the retina, and % neovascularization was relative to the total area of the retina^4.
Statistical analyses were performed using GraphPad Prism software.
In experiment [4] the test system is retinal cationic activity (Mn2+ uptake). Briefly: Manganese-enhanced MRI (MEMRI) single dose study. The note with it: rats, Mn2+ uptake by MRI.
Method: Rats are to be maintained in regular laboratory lighting (12 hours light, 12 hours dark) prior to start of experimental period—light exposure, bleaching, dark adaption will vary by cohort (see below).
Animals are to be dosed by oral gavage according to group assignment below. Rats are to be weighed each week of the experimental period.
Dilate pupils by applying 1 drop of tropicamide (0.5%) 10-30 minutes before photobleaching. Photobleach animals for 10 minutes by exposure to 5000 lux 4 hours before MRI imaging.
Inject rats immediately after bleach, 4 hours prior to the start of imaging session. MEMRI signal reflects state of expression of activity-dependent channels during experimental period.
Keep rats in dark (IOP room) during the 4 hours between injection and transport to the imaging center for practice experiments for all groups except group 4. Keep animals from group 4 exposed to light during 4 hours between MnCl2 injection and MRI imaging. Otherwise follow light-dark-bleaching cycle described for each cohort.
A snapshot FLASH inversion recovery (IR) imaging sequence is used to acquire a single imaging slice bisecting the retina in the axial and sagittal planes, using a 12 mm inner diameter linear surface coil. […] The approximate scan time per animal is ˜16 minutes. […]

A word on the ED50: it is the dose at which the effect has come halfway, by size or by number of responders. Broadly, the IC50 is the concentration needed to halve the response being measured.

On visual cycle isomerase [1], `CCCC(CCC)COc1cccc([C@H](O)CCN)c1` [ACU-4935, (R)-3-amino-1-(3-(2-propylpentyloxy)phenyl)propan-1-ol] showed an ED50 of 0.4 µg/kg. Further, the “VEGF mRNA levels” value is “slightly increased” with VEGF (2 hours post-hypoxia) and “decreased” in the experiment on VEGF (time 0 after hypoxia). Moreover, the VEGF protein expression entry in the experiment with VEGF (after 6% O2 for 6 hours, vs vehicle) is “Slight differences”. Half-maximal inhibition against visual cycle isomerase [2] (IC50) was put at 5.2 nM. Also, the “Retinal neovascular area reduced” value in experiment [3] (0.3 mg/kg/day intraperitoneal, vs vehicle) was found to be 23%. Moreover, the “Retinal neovascular area compared to treatment with vehicle” value in experiment [3] is listed as “significantly reduced”.
For `CC(=O)NCC=C(C)C=CC=C(C)C=CC1=C(C)CCCC1(C)C` [Retinyl acetamide], the “Retinal behaviour after bleach and dark adaptation (expectation)” value in experiment [4] was “behave as if they were light adapted”.
Regarding `CN(C)C[C@@H]1CCn2cc(c3ccccc32)C2=C(C(=O)NC2=O)c2cn(c3ccccc23)CCO1` [Ruboxistaurin, reference compound], the “Retinal neovascular area reduced” value in experiment [3] (10 mg/kg/day intraperitoneal, positive control) amounted to 29%.
